According to patent publication US7960369B2, “Receptor function regulator” (Takeda Pharmaceutical Company Limited, priority 2002, dated 2011):

Columns and labels:
human GPR40 = target: T1, human GPR40 (Homo sapiens, UniProt O14842); assay: Effect of regulation of GPR40 receptor function (agonistic effect), intracellular calcium by FLIPR; format: cell-based; settings: CHO cell line (No. 104) expressing human GPR40, fluorescence intensity at 30 sec after start of reaction
T1 construct: expressed in transfected cells; host or cells: CHO cell line CHO-hGPR40 No. 104 (pAKKO-111 vector)
T1 sequence (O14842 whole entry): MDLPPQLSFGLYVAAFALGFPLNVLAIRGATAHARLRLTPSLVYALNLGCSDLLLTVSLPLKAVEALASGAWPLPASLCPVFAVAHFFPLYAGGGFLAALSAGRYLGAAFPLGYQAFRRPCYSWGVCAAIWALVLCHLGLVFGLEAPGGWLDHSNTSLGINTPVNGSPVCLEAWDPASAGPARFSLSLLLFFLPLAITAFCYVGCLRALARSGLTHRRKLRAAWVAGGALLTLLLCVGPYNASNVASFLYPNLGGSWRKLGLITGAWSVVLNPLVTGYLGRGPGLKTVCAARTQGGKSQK
Protocol: CHO cell line (No. 104) made to express human GPR40 was diluted such that 3×10^4 cells/100 μL were contained, dispensed to a black walled 96-well plate (Costar) at 100 μL per well, and incubated overnight in a CO2 incubator. The changes in the intracellular calcium concentration were measured using FLIPR (Molecular Device). The method is described in the following.
Fluo-3AM (DOJIN) (50 μg) was dissolved in 21 μl DMSO (DOJIN), and an equal amount of 20% pluronic acid (Molecular Probes) was added and mixed, and the mixture was added to 10.6 ml of an assay buffer [prepared by adding 20 ml of 1M HEPES (pH 7.4) (DOJIN) to 1 L of HBSS (Invitrogen), and adding a mixed solution (10 ml) obtained by dissolving probenecid (Sigma) (710 mg) in 1N NaOH (5 ml) and adding and mixing with the above-mentioned HBSS/HEPES solution (5 ml)] supplemented with 105 μl of fetal calf serum to give a fluorescence dye solution. The medium in the cell plate was removed, a fluorescence dye solution was immediately dispensed at 100 μl per well, and incubated in a CO2 incubator for 1 hr to incorporate fluorescence dye into the cell. The incubated cells were washed with the above-mentioned assay buffer. The compound to be added to the cell was diluted with the assay buffer to each concentration and dispensed to a test sample plate. After the above-mentioned pretreatment, changes in the intracellular calcium concentration after addition of the compound was measured by FLIPR, and the agonistic effect was examined. EC50 value was calculated from a dose response curve based on the changes in the fluorescence intensity value at 30 sec after the start of the reaction.

Male SD rats = assay: In vivo insulin secretion promoting effect and hypoglycemic action, oral glucose tolerance test; parameters: species or system rat; settings: 30 mg/kg oral, glucose 2 g/kg oral 30 min after administration, Williams test p<=0.025
Protocol: Male SD rats (CLEA Japan, Inc, 7-week-old) were fasted for one day, and divided into groups (6 per group) based on blood glucose level and body weight. A suspension of the compound of Example 41 in 0.5% methyl cellulose was orally administered at the dose of 30 mg/kg and glucose (2 g/kg) was orally loaded at 30 min after administration. Only 0.5% methyl cellulose was administered to the control group, and similarly loaded with glucose. Plasma was taken before glucose tolerance test, and 7, 30 and 60 minutes after glucose tolerance test, and the blood glucose level and insulin concentration were measured. The blood glucose level was measured by HITACHI autoanalyzer 7070, and insulin was measured by radioimmunoassay ([^125L] Sionoria insulin, Shionogi & Co., Ltd.).

[1] = system: mouse pancreatic β cell line MIN6; assay: Promotion of insulin secretion from MIN6 (insulin immunoassay); format: cell-based; settings: MIN6, KRBH with 22 mM glucose, 90 min
Protocol: (§1) Mouse pancreatic β cell line MIN6 cultured in a flask was detached with PBS containing 2.5 mM EDTA, and seeded and incubated in a 96 well plate for 2 days. The medium used was obtained by adding 15% fetal bovine serum (ThermoTrace), […] 2-mercaptoethanol (Invitrogen), 20 mM HEPES pH 7.3, 100 U/ml penicillin and 100 μg/ml streptomycin to Dulbecco's Modified Eagle Medium (DMEM, Invitrogen) containing 4.5 g/l of glucose. The cells were washed twice with modified Krebs-Ringer bicarbonate buffer (KRBH, 116 mM NaCl, 4.7 mM KCl, 1.2 mM KH2PO4, 1.2 mM MgSO4, 2.5 mM CaCl2, 25 mM NaHCO3, 24 mM HEPES pH 7.3) and preincubated at 37° C. under 5% CO2 conditions for 30 min. Fatty acid diluted and prepared with a buffer obtained by adding 22 mM glucose to the above-mentioned KRBH was added to the cell after preincubation and the cells were incubated at 37° C. under 5% CO2 conditions for 90 min. After incubation, the cell supernatant was recovered and cryopreserved. The insulin content of the supernatant was measured using a commercially available insulin immunoassay kit (Amersham Pharmacia Biotech).
as §1, with “(KBH,” for “(KRBH,”, “The compound” for “Fatty acid”

- EC50 (human GPR40): 55 nM
SMILES: O=C(O)CCc1ccc(O[C@@H]2CCc3ccccc32)cc1 [Example 41, (R)-4-[(2,3-dihydro-1H-inden-1-yl)oxy]benzenepropanoic acid]
- increase in insulin versus control group (Male SD rats; at 7 minutes after glucose tolerance test): significantly greater increase in insulin
- increase in blood glucose level versus control group (Male SD rats; at 30 minutes after glucose tolerance test): significantly suppressed increase in the blood glucose level
- insulin secretion enhancing activity [1]: significant insulin secretion enhancing activity
